We go through 23 molecules from patent US10865191B2, “Heterocyclic compounds useful as modulators of TNF alpha” (BRISTOL-MYERS SQUIBB COMPANY, priority 2015, dated 2020).

Chain of TNFα (P01375 77-233 limits assumed): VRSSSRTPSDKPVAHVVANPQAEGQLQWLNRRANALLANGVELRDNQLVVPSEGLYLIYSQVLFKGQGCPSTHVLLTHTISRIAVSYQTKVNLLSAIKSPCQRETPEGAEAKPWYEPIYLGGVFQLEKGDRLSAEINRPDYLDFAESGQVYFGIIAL

In the first test the target is TNFα (Homo sapiens, UniProt P01375). Briefly: TNF induced HEK-Blue assay (NF-kB-driven secreted alkaline phosphatase reporter). Format: cell-based. The settings on record: TNF induced HEK-Blue assay IC50 value, TNFα 0.5 ng/mL, HEK-Blue-CD40L cells, 18 h. In a few lines:
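HEK-Blue-CD40L cells (NF-kB-driven SEAP reporter), 20,000/well, added after 30 min pre-incubation of compound (0.004–25 μM final) with TNFα 0.5 ng/mL final at 37 °C; 18 h incubation. SEAP read with QUANTI-Blue at 620 nm; IC50 from 4-parameter logistic fit, normalized to unstimulated and stimulated DMSO controls.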
By IC50 is commonly meant the concentration that gives 50% inhibition. `C[C@@H](Nc1c(Cl)cnc2ccc(-c3cnc(N4CCN(CC(N)=O)CC4)nc3)cc12)c1ccccc1F` [Example 90, (R)-2-(4-(5-(3-chloro-4-((1-(2-fluorophenyl)ethyl)amino)quinolin-6-yl)pyrimidin-2-yl)piperazin-1-yl)acetamide] yielded an IC50 of less than 1000 nM.

Still in this test, the particulars now being: TNFα 0.5 ng/mL, HEK-Blue-CD40L cells, 18 h; read-out: TNF induced HEK-Blue assay IC50 value.
`C=Cc1ccc(F)c([C@@H](C)Nc2c(Cl)c(C)nc3ccc(-c4cnc(C(C)(C)O)nc4)cc23)c1` [Example 330, (R)-2-(5-(3-chloro-4-((1-(2-fluoro-5-vinylphenyl)ethyl)amino)-2-methylquinolin-6-yl)pyrimidin-2-yl)propan-2-ol]: the IC50 is less than 1000 nM. For the molecule `OC[C@@H]1CN(c2ncc(-c3ccc4ncc(Cl)c(N[C@@H](c5ccccc5F)C(F)F)c4c3)cn2)CCO1` [Example 87, ((S)-4-(5-(3-chloro-4-(((S)-2,2-difluoro-1-(2-fluorophenyl)ethyl)amino)quinolin-6-yl)pyrimidin-2-yl)morpholin-2-yl)methanol], the IC50 is less than 1000 nM. Still for that read-out and setting: next, `CC(C)(O)c1ccc(-c2ccc3ncc(Cl)c(NC(CCF)c4ccccc4F)c3c2)cc1` (racemic) [Example 232, 2-(4-(3-chloro-4-((3-fluoro-1-(2-fluorophenyl)propyl)amino)quinolin-6-yl)phenyl)propan-2-ol]: less than 1000 nM; `CC(Nc1c(Cl)cnc2cc(F)c(-c3cnc(C(C)(O)CO)nc3)cc12)c1ccccc1F` (centres unmarked) [Example 254, 2-(5-(3-chloro-7-fluoro-4-((1-(2-fluorophenyl)ethyl)amino)quinolin-6-yl)pyrimidin-2-yl)propane-1,2-diol]: less than 1000 nM; `CC(=O)NC1CCC(O)(c2ncc(-c3ccc4ncc(Cl)c(N[C@H](C)c5ccccc5F)c4c3)cn2)CC1` (stereo partly drawn) [Example 132, (R)—N-(4-(5-(3-chloro-4-((1-(2-fluorophenyl)ethyl)amino)quinolin-6-yl)pyrimidin-2-yl)-4-hydroxycyclohexyl)acetamide]: 1000 to 10000 nM. Regarding `CNc1ncc(-c2cc(Cl)c3ncc(Cl)c(NC(C)c4ccccc4F)c3c2)cn1` (racemic) [Example 19, 3,8-dichloro-N-(1-(2-fluorophenyl)ethyl)-6-(2-(methylamino)pyrimidin-5-yl)quinolin-4-amine], the half-inhibitory concentration (IC50) fell in the range of 10000 to 25000 nM. Same read-out and setting: next, `CCc1ccc(-c2ccc(F)c([C@@H](C)Nc3c(Cl)cnc4ccccc34)c2)cn1` [Example 508, (R)-3-chloro-N-(1-(5-(6-ethylpyridin-3-yl)-2-fluorophenyl)ethyl)quinolin-4-amine]: less than 1000 nM; `Cc1nc2cc(F)c(-c3cnc(C(C)(C)O)nc3)nc2c(N[C@H](C)c2cc(C(O)CO)ccc2F)c1Cl` (stereo partly drawn) [Example 570, 1-(3-((R)-1-((3-chloro-7-fluoro-6-(2-(2-hydroxypropan-2-yl)pyrimidin-5-yl)-2-methyl-1,5-naphthyridin-4-yl)amino)ethyl)-4-fluorophenyl)ethane-1,2-diol]: 1000 to 10000 nM; `C[C@@H](Nc1c(Cl)cnc2ccc(-c3cnc([C@]4(O)CCC[C@H]4O)nc3)cc12)c1ccccc1F` [Example 121, (1R,2R)-1-(5-(3-chloro-4-(((R)-1-(2-fluorophenyl)ethyl)amino)quinolin-6-yl)pyrimidin-2-yl)cyclopentane-1,2-diol]: less than 1000 nM.

With `Cc1nc2ccc(-c3cnc(N4CCN(CC(=O)O)CC4)nc3)cc2c(N[C@H](C)c2cc(C#N)ccc2F)c1Cl` [Example 377, (R)-2-(4-(5-(3-chloro-4-((1-(5-cyano-2-fluorophenyl)ethyl)amino)-2-methylquinolin-6-yl)pyrimidin-2-yl)piperazin-1-yl)acetic acid], the IC50 was less than 1000 nM. The same measure, in the same setting: the figure for `C[C@@H](Nc1c(Cl)cnc2ccc(-c3ccc(C4(NC(N)=O)CCC4)cc3)cc12)c1ccccc1F` [Example 483, (R)-1-(1-(4-(3-chloro-4-((1-(2-fluorophenyl)ethyl)amino)quinolin-6-yl)phenyl)cyclobutyl)urea] is 1000 to 10000 nM; for `CC(Nc1c(Cl)cnc2cc(F)c(-c3cnc(N4CCC(CC(=O)O)CC4)nc3)cc12)c1ccccc1F` (racemic) [Example 266, 2-(1-(5-(3-chloro-7-fluoro-4-((1-(2-fluorophenyl)ethyl)amino)quinolin-6-yl)pyrimidin-2-yl)piperidin-4-yl)acetic acid] it is less than 1000 nM. Still for that read-out and setting: next, `Cc1nc2ccc(-c3cnc(C(C)(C)O)nc3)cc2c(N[C@H](C)c2cc(C#N)ccc2F)c1Cl` [Example 375, (R)-3-(1-((3-chloro-6-(2-(2-hydroxypropan-2-yl)pyrimidin-5-yl)-2-methylquinolin-4-yl)amino)ethyl)-4-fluorobenzonitrile]: less than 1000 nM. Same read-out and setting: next, `COc1ccc(F)c([C@H](C)Nc2c(Cl)cnc3ccccc23)c1` [Example 476, (S)-3-chloro-N-(1-(2-fluoro-5-methoxyphenyl)ethyl)quinolin-4-amine]: 1000 to 10000 nM; `CC(Nc1c(Cl)cnc2ccc(-c3cnc(C(C)(C)O)nc3)cc12)c1ccncc1F` (racemic) [Example 162, 2-(5-(3-chloro-4-((1-(3-fluoropyridin-4-yl)ethyl)amino)quinolin-6-yl)pyrimidin-2-yl)propan-2-ol]: less than 1000 nM. As to `CC(Nc1c(Cl)cnc2cc(F)c(-c3cc(F)c(C(C)(C)O)c(F)c3)cc12)c1ccccc1F` (racemic) [Example 267, 2-(4-(3-chloro-7-fluoro-4-((1-(2-fluorophenyl)ethyl)amino)quinolin-6-yl)-2,6-difluorophenyl)propan-2-ol], the half-maximal inhibitory concentration (IC50) was less than 1000 nM. Still for that read-out and setting: the figure for `CC(Nc1c(Cl)cnc2ccc(-c3cnc(C(C)(C)O)nc3)cc12)c1cc(Cl)ccn1` (racemic) [Example 62, 2-(5-(3-chloro-4-((1-(4-chloropyridin-2-yl)ethyl)amino)quinolin-6-yl)pyrimidin-2-yl)propan-2-ol] is 1000 to 10000 nM; for `C[C@@H](Nc1c(Cl)cnc2cc(F)c(-c3cnc(C(C)(C)O)nc3)nc12)c1cc(C(N)=O)ccc1F` [Example 583, (R)-3-(1-((3-chloro-7-fluoro-6-(2-(2-hydroxypropan-2-yl)pyrimidin-5-yl)-1,5-naphthyridin-4-yl)amino)ethyl)-4-fluorobenzamide] it is less than 1000 nM. On the same count and under the same terms, the figure for `C[C@@H](Nc1c(Cl)cnc2ccc(-c3cnc(C(C)(C)O)nc3)cc12)c1cc(CN)ccc1F` [Example 429, (R)-2-(5-(4-((1-(5-(aminomethyl)-2-fluorophenyl)ethyl)amino)-3-chloroquinolin-6-yl)pyrimidin-2-yl)propan-2-ol] is less than 1000 nM; for `C[C@@H](Nc1c(Cl)cnc2ccc(-c3ccc(C(O)(CF)CF)cc3)cc12)c1ccccc1F` [Example 117, (R)-2-(4-(3-chloro-4-((1-(2-fluorophenyl)ethyl)amino)quinolin-6-yl)phenyl)-1,3-difluoropropan-2-ol] it is less than 1000 nM. On to `C[C@@H](Nc1c(Cl)cnc2ccc(-c3cnc(C(C)(C)O)nc3)cc12)c1cc(C2NC(=O)NC2=O)ccc1F` (single isomer, unassigned) [Example 423], for which the IC50 is less than 1000 nM. Still for that read-out and setting: the figure for `CC(=O)NC1(c2ccc(-c3ccc4ncc(Cl)c(N[C@H](C)c5ccccc5F)c4c3)cc2)CCC1` [Example 113, (R)—N-(1-(4-(3-chloro-4-((1-(2-fluorophenyl)ethyl)amino)quinolin-6-yl)phenyl)cyclobutyl)acetamide] is 10000 to 25000 nM.
